In brackets after ≈: the same amount, converted by molar mass.

For data set [1], the target named is human 20S proteasome (chymotrypsin-like activity, with PA28 activator) (Homo sapiens, UniProt P28074). Nature of the data set: fluorogenic suc-LLVY-AMC cleavage. It is filed as biochemical.
The nature of data set [2]: physchem. The following applies: ch3cn+pbs (1+1), pH 7.4.
The target in data set [3] is Mtb 20S open-gate proteasome (Mycobacterium tuberculosis, UniProt P9WHT9). Nature of the data set: biochemical.
Chain of Mtb 20S open-gate proteasome (P9WHT9 whole entry): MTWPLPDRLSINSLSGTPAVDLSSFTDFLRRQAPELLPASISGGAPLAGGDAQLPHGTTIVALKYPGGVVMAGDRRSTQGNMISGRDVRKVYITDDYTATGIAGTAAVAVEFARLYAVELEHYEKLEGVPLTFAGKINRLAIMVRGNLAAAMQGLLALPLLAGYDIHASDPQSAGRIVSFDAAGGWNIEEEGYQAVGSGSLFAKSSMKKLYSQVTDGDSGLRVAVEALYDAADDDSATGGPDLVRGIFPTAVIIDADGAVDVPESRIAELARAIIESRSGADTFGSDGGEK
Chain of Mtb 20S open-gate proteasome (P9WHU1 whole entry partner): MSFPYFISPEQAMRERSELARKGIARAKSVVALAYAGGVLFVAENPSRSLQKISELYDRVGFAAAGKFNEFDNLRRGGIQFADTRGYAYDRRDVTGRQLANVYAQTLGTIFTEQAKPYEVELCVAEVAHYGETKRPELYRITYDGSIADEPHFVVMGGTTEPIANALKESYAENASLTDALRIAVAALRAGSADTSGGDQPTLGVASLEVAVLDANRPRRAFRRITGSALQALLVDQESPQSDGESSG
Data set [4] in a line: physchem. The following applies: pbs, pH 7.4, aqueous buffer.
Data set [5] can be described thus: physchem. The following applies: ch3cn+pbs (1+1), pH 7.4. The source holds these as a separate data set.
The nature of data set [6]: physchem. The following applies: pbs, pH 7.4, aqueous buffer. This is another data set of the same source.

Chain of human 20S proteasome (chymotrypsin-like activity, with PA28 activator) (P28074 60-263): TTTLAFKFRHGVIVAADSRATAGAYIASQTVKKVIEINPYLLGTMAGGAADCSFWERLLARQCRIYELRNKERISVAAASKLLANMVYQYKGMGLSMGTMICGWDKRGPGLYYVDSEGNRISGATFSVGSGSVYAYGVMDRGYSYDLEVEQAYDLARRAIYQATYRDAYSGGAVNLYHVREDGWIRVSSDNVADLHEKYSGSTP
Chain of human 20S proteasome (chymotrypsin-like activity, with PA28 activator) (P25786 whole entry partner): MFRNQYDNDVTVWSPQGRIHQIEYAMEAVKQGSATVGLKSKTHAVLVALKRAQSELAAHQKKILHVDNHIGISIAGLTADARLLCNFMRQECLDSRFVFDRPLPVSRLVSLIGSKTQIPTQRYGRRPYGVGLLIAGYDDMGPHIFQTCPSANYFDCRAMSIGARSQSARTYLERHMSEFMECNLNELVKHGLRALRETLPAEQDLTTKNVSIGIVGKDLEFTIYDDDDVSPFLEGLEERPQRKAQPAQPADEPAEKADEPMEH

Turning to `COc1cccc(Cc2nsc(=O)o2)c1` [compound 10, 5-(3-Methoxybenzyl)-1,3,4-oxathiazol-2-one], in data set [1], the IC50 (usually the point on the concentration scale where inhibition reaches its midpoint) was greater than 100 µM.

As to `COC(=O)c1ccc(/C=C/c2nsc(=O)o2)cc1` [compound 35, (E)-Methyl 4-(2-(2-oxo-1,3,4-oxathiazol-5-yl)vinyl)benzoate], the IC50 in data set [1] is 27.5 µM; in data set [3] it was 415 nM. The share remaining – broadly, the share of the starting amount still present when the sample was taken – at 24 h, 50 µM in “physchem [2]” turned out to be 97.3%.

With `O=c1oc(C(O)c2ccccc2)ns1` (stereo not shown) [compound 14, 5-(Hydroxy(phenyl)methyl)-1,3,4-oxathiazol-2-one], inhibition in data set [1] was half-maximal at 20 µM (IC50). On to `N#Cc1ccc(/C=C/c2nsc(=O)o2)cc1` [compound 37, (E)-4-(2-(2-Oxo-1,3,4-oxathiazol-5-yl)vinyl)benzonitrile], for which the concentration for half-maximal inhibition (IC50) in data set [1] was 41.5 µM; in data set [3], 495 nM. In the data set “physchem [2]”, this compound had a share remaining at 24 h, 50 µM of 95.4%. As for `O=c1oc(/C=C/c2ccc(Cl)cc2)ns1` [compound 39, (E)-5-(4-Chlorostyryl)-1,3,4-oxathiazol-2-one], the concentration for half-maximal inhibition (IC50) is greater than 100 µM in data set [1] and 565 nM in data set [3]. Besides, the amount remaining at 24 h, 50 µM in “physchem [2]” amounted to 98.2%. For the compound `O=c1oc(CCc2ccccc2)ns1` [compound 15, 5-Phenethyl-1,3,4-oxathiazol-2-one], it took 6.7 µM to reach half-maximal inhibition in data set [1] (IC50). For the compound `C=Cc1nsc(=O)o1` [compound 21, 5-Vinyl-1,3,4-oxathiazol-2-one], 9.1 µM corresponded to half-maximal inhibition in data set [1] (IC50). For the compound `O=c1onc(-c2ccccc2)o1` [compound 24, 3-Phenyl-1,4,2-dioxazol-5-one], the IC50 in data set [1] was greater than 100 µM. In addition, in “physchem [4]”, the solubility (commonly the dissolved amount per volume that the medium holds) at 18 h came out at 7.6 µM (≈ 1.24 µg/mL). Moreover, the share remaining at 24 h, 50 µM in “physchem [5]” is 8.5%. As for `CCOC(=O)c1ccccc1/C=C/c1nsc(=O)o1` [compound 48, (E)-Ethyl 2-(2-(2-Oxo-1,3,4-oxathiazol-5-yl)vinyl)benzoate], in data set [1], the IC50 was greater than 100 µM. The compound also gave a fraction remaining at 24 h, 50 µM in “physchem [2]” of 97.7%. As for `CCOC(=O)c1cccc(/C=C/c2nsc(=O)o2)c1` [compound 44, (E)-Ethyl 3-(2-(2-Oxo-1,3,4-oxathiazol-5-yl)vinyl)benzoate], the IC50 in data set [1] was greater than 100 µM; in data set [3], 9900 nM. The same compound yielded a fraction remaining at 24 h, 50 µM in “physchem [2]” of 96%. For `O=c1oc(/C=C/c2cc(Cl)ccc2Cl)ns1` [compound 40, (E)-5-(2,5-Dichlorostyryl)-1,3,4-oxathiazol-2-one] the same measures were 50 µM, 785 nM and 98.5%. Consider `O=c1oc(/C=C/c2ccccn2)ns1` [compound 54, (E)-5-(2-(Pyridin-2-yl)vinyl)-1,3,4-oxathiazol-2-one], for which the solubility at 18 h in “physchem [6]” amounted to 64.6 µM (≈ 13.3 µg/mL). Turning to `CCc1ccc(/C=C/c2nsc(=O)o2)cc1` [compound 31, (E)-5-(4-Ethylstyryl)-1,3,4-oxathiazol-2-one], the half-maximal inhibitory concentration (IC50) in data set [1] is greater than 100 µM; in data set [3], 1080 nM. In “physchem [2]”, this compound returned a fraction remaining at 24 h, 50 µM of 98.2%.

Turning to `CCc1ccccc1/C=C/c1nsc(=O)o1` [compound 46, (E)-5-(2-Ethylstyryl)-1,3,4-oxathiazol-2-one], in data set [1], the half-inhibitory concentration (IC50) is greater than 100 µM. This compound showed a fraction remaining at 24 h, 50 µM in the data set “physchem [2]” of 98%. With `O=c1oc(/C=C/c2ccc(OC(F)(F)F)cc2)ns1` [compound 32, (E)-5-(4-(Trifluoromethoxy)styryl)-1,3,4-oxathiazol-2-one], the IC50 in data set [1] is greater than 100 µM; in data set [3], 780 nM. Further, the share remaining at 24 h, 50 µM in “physchem [2]” was determined as 94.8%. On to `O=c1oc(/C(=C/c2ccccc2)c2ccccc2)ns1` [compound 23, (E)-5-(1,2-Diphenylvinyl)-1,3,4-oxathiazol-2-one], for which the concentration for half-maximal inhibition (IC50) in data set [1] amounted to 14 µM. In data set [1], `O=c1oc(-c2ccccc2)ns1` [compound 1, 5-Phenyl-1,3,4-oxathiazol-2-one] had an IC50 of 6.2 µM. For the compound `O=c1onc(/C=C/c2ccccc2)o1` [compound 25], the concentration in solution in “physchem [4]” (solubility at 18 h) came to 12.3 µM (≈ 2.33 µg/mL).

For the compound `Cc1cccc(/C=C/c2nsc(=O)o2)c1` [compound 41, (E)-5-(3-Methylstyryl)-1,3,4-oxathiazol-2-one], the values for the IC50 in data set [1] and in data set [3] were 39 µM and 1600 nM, respectively. The same compound came in with a fraction remaining at 24 h, 50 µM in the data set “physchem [2]” of 98.1%. For the compound `O=c1oc(/C=C/c2c[nH]c3ccccc23)ns1` [compound 57, 57], it took 5 µM to reach half-maximal inhibition in data set [1] (IC50). Besides, the concentration in solution in the data set “physchem [6]” (solubility at 18 h) came to 4.1 µM (≈ 1 µg/mL).

In the case of `O=c1oc(-c2cccc(F)c2)ns1` [compound 4, 5-(3-Fluorophenyl)-1,3,4-oxathiazol-2-one], in data set [1], half-maximal inhibition (IC50) required 11 µM. Regarding `O=Cc1ccc(OCc2nsc(=O)o2)cc1` [compound 11, 4-((2-Oxo-1,3,4-oxathiazol-5-yl)methoxy)benzaldehyde], the IC50 in data set [1] was greater than 100 µM.

On to `CCCCCc1nsc(=O)o1` [compound 7, 5-Pentyl-1,3,4-oxathiazol-2-one], for which the IC50 in data set [1] is greater than 100 µM.

For the compound `CC(C)c1ccc(/C=C/c2nsc(=O)o2)cc1` [compound 29, (E)-5-(4-Isopropylstyryl)-1,3,4-oxathiazol-2-one], the half-inhibitory concentration (IC50) in data set [1] was 14.5 µM; in data set [3], 1700 nM. In addition, the amount remaining at 24 h, 50 µM in “physchem [2]” worked out at 99.8%. On to `Cc1ccccc1/C=C/c1nsc(=O)o1` [compound 45, (E)-5-(2-Methylstyryl)-1,3,4-oxathiazol-2-one], for which the IC50 in data set [1] is greater than 100 µM. In addition, in the data set “physchem [2]”, the fraction remaining at 24 h, 50 µM came to 94%. Consider `CO[C@H](c1ccccc1)c1nsc(=O)o1` [compound 16, (R)-5-(Methoxy(phenyl)methyl)-1,3,4-oxathiazol-2-one], for which the IC50 in data set [1] amounted to 5.8 µM. In the case of `CCc1cccc(/C=C/c2nsc(=O)o2)c1` [compound 42, (E)-5-(3-Ethylstyryl)-1,3,4-oxathiazol-2-one], the IC50 in data set [1] was 32.5 µM; in data set [3], 1450 nM. The compound also yielded a fraction remaining at 24 h, 50 µM in “physchem [2]” of 96.4%. Take `O=c1oc(/C=C/c2ccc(C(F)(F)F)cc2)ns1` [compound 18, (E)-5-(4-(Trifluoromethyl)styryl)-1,3,4-oxathiazol-2-one]: in data set [1], the IC50 was greater than 100 µM. Further, the concentration in solution in the data set “physchem [4]” (solubility at 18 h) came to 0.1 µM (≈ 0.0273 µg/mL). Turning to `O=c1oc(/C=C/c2cccc(OC(F)(F)F)c2)ns1` [compound 43, (E)-5-(3-(Trifluoromethoxy)styryl)-1,3,4-oxathiazol-2-one], the IC50 in data set [1] is 39.5 µM; in data set [3] it was 1800 nM. The amount remaining at 24 h, 50 µM in “physchem [2]” worked out at 96.2%.

The compound `O=c1oc(/C=C/C(F)(F)F)ns1` [compound 22, (E)-5-(3,3,3-Trifluoroprop-1-en-1-yl)-1,3,4-oxathiazol-2-one] displayed a half-maximal inhibitory concentration (IC50) in data set [1] greater than 100 µM. Also, the solubility at 18 h in the data set “physchem [4]” is 44.1 µM (≈ 8.69 µg/mL). This compound showed a fraction remaining at 24 h, 50 µM in “physchem [5]” of 79.9%. `O=c1nc2c(/C=C/c3nsc(=O)o3)cccn2s1` [compound 56, (E)-5-(2-(2-Oxo-2 H-[1,2,4]thiadiazolo[2,3-a]pyridin-8-yl)vinyl)-1,3,4-oxathiazol-2-one] came in with a solubility at 18 h in “physchem [6]” of 2.4 µM (≈ 0.67 µg/mL).

In turn, `O=c1oc(/C=C/c2ccccc2OC(F)(F)F)ns1` [compound 47, (E)-5-(2-(Trifluoromethoxy)styryl)-1,3,4-oxathiazol-2-one] came in with an IC50 in data set [1] greater than 100 µM. The share remaining at 24 h, 50 µM in the data set “physchem [2]” was found to be 95.7%.

Turning to `O=c1oc(CCCl)ns1` [compound 5, 5-(2-Chloroethyl)-1,3,4-oxathiazol-2-one], the concentration for half-maximal inhibition (IC50) in data set [1] is greater than 100 µM. In the case of `COc1cccc(-c2nsc(=O)o2)c1` [compound 3, 5-(3-Methoxyphenyl)-1,3,4-oxathiazol-2-one], the half-inhibitory concentration (IC50) in data set [1] is 15 µM. Regarding `O=c1oc(Cc2cccc3ccccc23)ns1` [compound 12, 5-(Naphthalen-1-ylmethyl)-1,3,4-oxathiazol-2-one], the half-inhibitory concentration (IC50) in data set [1] was greater than 100 µM.

As for `O=c1oc(CF)ns1` [compound 8, 5-(Fluoromethyl)-1,3,4-oxathiazol-2-one], the midpoint of inhibition in data set [1], the IC50, lay at 1.4 µM.

In the case of `O=c1oc(/C=C/c2cccnc2)ns1` [compound 55, (E)-5-(2-(Pyridin-3-yl)vinyl)-1,3,4-oxathiazol-2-one], the solubility at 18 h in the data set “physchem [6]” is 70.6 µM (≈ 14.6 µg/mL).

On to `O=Cc1ccc(/C=C/c2nsc(=O)o2)cc1` [compound 38, (E)-4-(2-(2-Oxo-1,3,4-oxathiazol-5-yl)vinyl)benzaldehyde], for which the 50% inhibitory concentration (IC50) in data set [1] was 32.5 µM; in data set [3], 695 nM. For the same compound, the share remaining at 24 h, 50 µM in “physchem [2]” amounted to 91.4%. Take `CCOC(=O)c1ccc(/C=C/c2nsc(=O)o2)cc1` [compound 33, (E)-Ethyl 4-(2-(2-oxo-1,3,4-oxathiazol-5-yl)vinyl)benzoate]: the figures for the half-inhibitory concentration (IC50) in data set [1] and in data set [3] were greater than 100 µM and 475 nM, respectively. Also, the share remaining at 24 h, 50 µM in “physchem [2]” stood at 91.1%. On to `O=c1oc(C2CC2)ns1` [compound 6, 5-Cyclopropyl-1,3,4-oxathiazol-2-one], for which, in data set [1], the half-inhibitory concentration (IC50) was greater than 100 µM. For `Cc1ccc(/C=C/c2nsc(=O)o2)cc1` [compound 30, (E)-5-(4-Methylstyryl)-1,3,4-oxathiazol-2-one], the 50% inhibitory concentration (IC50) in data set [1] is greater than 100 µM; in data set [3], 1000 nM. This compound also displayed an amount remaining at 24 h, 50 µM in the data set “physchem [2]” of 96%. On the same counts, the results for `O=c1oc(/C=C/c2ccc([N+](=O)[O-])cc2)ns1` [compound 36, (E)-5-(4-Nitrostyryl)-1,3,4-oxathiazol-2-one] are 26 µM, 1400 nM and 96.9%.

The compound `O=c1oc(Cc2ccccc2C(F)(F)F)ns1` [compound 13, 5-(2-(Trifluoromethyl)benzyl)-1,3,4-oxathiazol-2-one] yielded a half-maximal inhibitory concentration (IC50) in data set [1] of 8.7 µM. Turning to `O=c1oc(-c2cnccn2)ns1` [compound 2, 5-(Pyrazin-2-yl)-1,3,4-oxathiazol-2-one], the 50% inhibitory concentration (IC50) in data set [1] came to 4.5 µM. In data set [1], `O=c1oc(Cc2ccccc2)ns1` [compound 9, 5-Benzyl-1,3,4-oxathiazol-2-one] displayed a concentration for half-maximal inhibition (IC50) of 1.9 µM. On to `O=C(c1ccccc1)c1ccc(/C=C/c2nsc(=O)o2)cc1` [compound 34, (E)-5-(4-Benzoylstyryl)-1,3,4-oxathiazol-2-one], for which the IC50 in data set [1] stood at 87 µM; in data set [3], 1190 nM. The compound further returned a share remaining at 24 h, 50 µM in the data set “physchem [2]” of 96.1%.

For the origin of these results see paper PMC4522185 (ChemistryOpen, 2015).
